Assay results taken from patent US20160025704A1, “METHODS FOR IDENTIFYING NEUROPROTECTIVE PKC ACTIVATORS” (priority 2013, published 2016).

Experiments:
ECE [1] = experiment: ECE activity in cultured neurons (fluorometric); type: cell-based; details: 1 μM, compared to ethanol alone
Protocol: (§1) Aβ can be degraded in vivo by a number of enzymes, including insulin degrading enzyme (insulysin), neprilysin, and ECE (FIG. 12). Because PKC-ε overexpression has been reported to activate ECE (Choi et al., Proc. Natl. Acad. Sci. USA. 2006; 103: 8215-20), the effect of PKC activators on ECE was analyzed. Candidate PKC activators were added to either SH-SY5Y cells (Bryo—0.27 nM, DCP-LA—1 μM, and DHA-CP6 1 μM) or cultured neurons (DHA-CP6—1 μM, EPA-CP5— 1 μM, and AA-CP4— 1 μM), and grown on either 12- or 24-well plates. After various time periods, the cells were collected and ECE activity was measured fluorometrically. Results are shown below in FIG. 13. *, p<0.05; **, p<0.001.

PKC-ε = biological target: T1, PKC-ε (Homo sapiens, UniProt Q02156); experiment: Activation of purified PKC isozymes; type: biochemical; details: purified PKC isozymes (9 ng), preincubated 5 minutes at room temperature
T1 sequence (Q02156 1-737): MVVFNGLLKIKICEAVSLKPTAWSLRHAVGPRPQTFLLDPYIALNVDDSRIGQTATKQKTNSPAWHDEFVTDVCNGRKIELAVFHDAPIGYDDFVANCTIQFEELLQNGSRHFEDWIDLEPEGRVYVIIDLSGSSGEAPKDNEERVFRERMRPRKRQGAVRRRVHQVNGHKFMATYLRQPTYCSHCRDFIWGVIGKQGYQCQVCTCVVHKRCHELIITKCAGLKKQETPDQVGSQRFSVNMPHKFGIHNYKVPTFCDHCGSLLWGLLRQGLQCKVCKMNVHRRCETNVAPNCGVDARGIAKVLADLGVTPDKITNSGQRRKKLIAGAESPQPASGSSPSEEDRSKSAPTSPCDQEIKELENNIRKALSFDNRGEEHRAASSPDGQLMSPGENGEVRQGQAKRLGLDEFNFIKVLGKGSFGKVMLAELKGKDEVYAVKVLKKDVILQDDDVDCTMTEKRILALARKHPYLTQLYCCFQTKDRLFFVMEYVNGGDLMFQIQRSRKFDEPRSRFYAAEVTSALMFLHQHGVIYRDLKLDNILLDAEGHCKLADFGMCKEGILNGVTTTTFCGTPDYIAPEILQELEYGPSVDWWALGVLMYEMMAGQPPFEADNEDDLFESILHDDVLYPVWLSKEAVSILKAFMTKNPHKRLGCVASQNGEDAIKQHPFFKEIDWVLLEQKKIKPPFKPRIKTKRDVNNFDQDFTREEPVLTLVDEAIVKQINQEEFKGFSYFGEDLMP
Protocol: Protocol: Purified PKC-α, βII, γ, δ, or ε (9 ng) was preincubated for 5 minutes at room temperature with the following PKC activators: (A) DHA-CP6, (B) EPA-CP5, (C) AA-CP4, (D) DCP-LA, (E) “other cyclopropaneated and epoxidized fatty acids, alcohols, and methyl esters.” followed by measurement of PKC activity as described under Experimental Procedures. Results are shown below in FIG. 6.

[2] = tested on: TA 100 cells & TA 1535 cells / TA 98 cells; experiment: AMES testing, overall result (mutagenic potential); type: cell-based
Description: (§2) The AMES test is a rapid screening of the mutagenic potential of chemical compounds. […] Between 50% and 70% of all known carcinogens test positive in the AMES test.

TA 1535 Cells = experiment: AMES test, TA1535 cells; type: cell-based; details: plate count
Description: as §2

[3] = Internal toxicity study: Clinical Chemistry Panel & Hematology Panel; type: in vivo; details: in vivo
Protocol: Internal tests measuring various biological markers were performed 24 hours after administering a PKC activator (bryostatin, cyclopropanated arachidonic acid, DCPLA, and DHACP6) at 10× the therapeutic dose. The results are shown below in Tables 5-7.

sAPP-α = sAPP-α secretion in an Alzheimer's disease cell line; type: cell-based, human; details: 100 nM pretreatment, bryostatin 0.1 nM
Protocol: Protocol: An Alzheimer's disease cell line was incubated with bryostatin (0.1 nM), Benzolactam (0.1 nM or 1.0 μM), DMSO, pre-treated with staurosporin (100 nM) plus bryostatin (0.1 nM) for three hours. […] The graph units are relative to the vehicle, DMSO, alone (1).

Human primary neurons = experiment: ASPD-induced apoptosis in human primary neurons (Annexin-V Fluorescein); type: cell-based; details: 100 nM with 100 nM ASPD, 24 hours
Protocol: Protocol: Human primary neurons were grown on chambered slides and treated with vehicle (Control), 100 nM ASPD, ASPD+DCPLA-ME (100 nM), ASPD+bryostatin 1 (0.27 nM) and ASPD+DCPLA-ME (100 nM) or ASPD+bryostatin 1 (0.27 nM) in presence of PKC-ε inhibitor. Following 24 hours of incubation, cells were stained using Annexin-V Fluorescein to detect apoptotic cells and results are shown in FIG. 10 below. […] Data are mean±SEM of three independent experiments. (*p<0.05;** p<0.005 and *** p<0.0005).

[4] = tested on: neurons in the CA1 hippocampal area; experiment: Apoptotic cell death (TUNEL) in hippocampal CA1 area after ischemic (2-VO)/hypoxic event; type: in vivo; details: FIG. 11 legend; dose not given
Protocol: Protocol: Bryostatin-1 (15 μg/m^2) was administered through a tail vein (2 doses/week, for 10 doses), starting 24 hours after the end of the ischemic (2-VO)/hypoxic event. Staining for apoptotic cell death in the hippocampal CA1 area was performed 9 day after the last bryostatin-1 dose. […] (C) Quantification of TUNEL staining in stratum radiatum (n=3 animals; n=30 confocal images). Con=control; Bry=bryostatin-1; Isch=cerebral ischemia; ***, P<0.001.

HCN-2 cells = experiment: Synaptogenesis in HCN-2 cells; type: cell-based, human; details: 10 days
Protocol: FIG. 9 illustrates that activation of PKC-ε induces synaptogenesis in HCN-2 cells. The HCN-2 cell line was derived from cortical tissue removed from a patient undergoing hemispherectomy for intractable seizures associated with Rasmussen's encephalitis. The cells were treated with either DCPLA-methyl ester or bryostatin-1 for 10 days. […] Thus, PKC-ε activation can induce synaptogenesis in both embryonic and adult neuronal cells.

Primary human neurons = experiment: Synaptogenicity in primary human neurons; type: cell-based; details: 100 nM
Protocol: Protocol: Primary human neurons were treated with either DCPLA-methyl ester (100 nM) or bryostatin-1 (0.27 nM).

[5] = tested on: BDNF, NGF, NT-3, and GAP-43 mRNA; experiment: NTF mRNA expression in primary hippocampal neurons treated with Aβ (real time PCR); type: cell-based, rat; details: 100 nM; 1 μM Aβ; co-treated 24 hours or treated 12 hours after Aβ
Protocol: Protocol: Primary hippocampal neurons were treated with control buffer (Untreated), Aβ (1 μM, oligomeric form), or 0.5 nM bryostatin for 24 hours. Some cells were co-treated with Aβ plus 0.5 nM bryostatin (Bryo+Aβ) for 24 hours, or pre-treated with Aβ for 12 hours, washed out, and then treated with bryostatin for additional 12 hours (Aβ+Bryo). Cells were then lysed and total RNA was isolated. Relative expression change of BDNF, NGF, NT-3, and GAP-43 mRNA was quantitatively measured from real time PCR using specific primers against rat BDNF, NGF, NT-3, and GAP-43 mRNA (FIG. 14). A representative gel image is also shown below in FIG. 14 (Mean+SEM, *P<0.05, Aβ compared with untreated; #P<0.05, Bryo+Aβ or Aβ+Bryo compared with Aβ only).
Test A—DCPLA (500 nM): Primary hippocampal neurons were treated with control buffer (Untreated), Aβ (1 μM, oligomer), or 500 nM DCPLA for 24 hours. Some cells were pre-treated with Aβ for 12 hr and then treated with 500 nM DCPLA for 12 hours (Aβ+DCP-LA), or co-treated with Aβ plus 500 nM DCP-LA (DCP-LA+Aβ) for 24 hours. Total RNA was isolated and relative expression change of BDNF, NGF, NT-3, and GAP-43 mRNA was quantitatively measured from real time RT-PCR using specific primers against rat BDNF, NGF, NT-3, and GAP-43 mRNA (FIG. 15). A representative gel image is also shown below in FIG. 15 (Mean+SEM of three independent experiments, *P<0.05, Aβ compared with untreated; #P<0.05, Aβ+Bryo or Bryo+Aβ compared with Aβ only).
Test B—DCPLA-methyl ester (100 nM): Primary hippocampal neurons were treated with control buffer (Untreated), 1 μM Aβ, or 100 nM DCP-LA ME (the methyl ester form of DCP-LA) for 24 hours. Some cells were pre-treated with Aβ for 12 hr and then treated with 100 nM DCP-LA ME for 12 hours (Aβ+DCP-LA ME), or co-treated with Aβ plus […] (DCP-LA ME+Aβ) for 24 hours. Total RNA was isolated and relative expression change of BDNF, NGF, NT-3, and GAP-43 mRNA was quantitatively measured from real time RT-PCR using specific primers against rat BDNF, NGF, NT-3, and GAP-43 mRNA (FIG. 16). […]

[6] = tested on: healthy brown Norway rats; experiment: Learning, memory and mushroom spine synapses in healthy rats, water maze training; type: in vivo; details: PKCα inhibitor given with bryostatin and water maze training
Description: Protocol: Non-disease, healthy brown Norway rats (at 4-5 months old) were used in this study. […] (Nv=naîve controls; Sw=swim controls; Mz=water maze treatment; and Mz/Br=water maze treatment plus bryostatin treatment).

ECE [7] = experiment: ECE activity in SH-SY5Y cells (fluorometric); type: cell-based; details: 1 μM, compared to ethanol alone
Protocol: as §1
PKCε overexpression has been reported to activate endothelin converting enzyme (ECE). The effect of PKC activators on ECE was measured here with Bryostatin, DCP-LA, and DHA-CP6. […] Protocol: Bryostatin (0.27 nM), DCP-LA (1 μM), DHACP6 (1 μM), EPA-CP5 (1 μM), AA-CP4 (1 μM), or ethanol alone were added to SH-SYSY cells growing on 12- or 24-well plates. After various periods of time, the cells were collected and ECE activity was measured fluorometrically as showing in FIG. 34 below (* p<0.05, ** p<0.001).

CCC1CC1CC1CC1CC1CC1CC1CC1CC1CC1CCCC(=O)O (stereo not drawn) [EPA-CP5]
ECE activity (ECE [1]): increase in ECE activity

CCC1CC1CC1CC1CC1CC1CC1CC1CC1CC1CC1CC1CCC(=O)OC (stereo not drawn) [DHA-CP6-methyl ester]
PKC-ε specificity versus PKC-α and PKC-δ (PKC-ε): PKC-ε specificity ±15% PKC-α and PKC-δ

cyclopropanated arachidonic acid
AMES testing result [2]: not mutagenic | Result (Mutagenic Potential) [2]: Result: Not mutagenic, p > 0.05 | Negative (TA 1535 Cells; 0.05 mM, TA 1535 Cells): 93 | Positive (TA 1535 Cells; 0.05 mM, TA 1535 Cells): 3 | Negative (TA 1535 Cells; 0.125 mM, TA1535 Cells): 95 | Positive (TA 1535 Cells; 0.125 mM, TA1535 Cells): 1 | Negative (TA 1535 Cells; 0.5 mM, TA1535 Cells): 94 | Positive (TA 1535 Cells; 0.5 mM, TA1535 Cells): 2 | Negative (TA 1535 Cells; 1 mM, TA1535 Cells): 93 | Positive (TA 1535 Cells; 1 mM, TA1535 Cells): 3 | ALB (Albumin) [3]: 97.0 ± 2.6 | ALP (Alkaline phosphatase) [3]: 93.8 ± 6.6 | ALT (Alanine aminotransferase) [3]: 92.7 ± 5.4 | AST (Aspartate aminotransferase) [3]: 107.0 ± 10.3 | BA (Basophils) [3]: 400.0 ± 200.0 | BUN (Blood urea nitrogen) [3]: 92.0 ± 6.7 | CA (Calcium) [3]: 101.0 ± 3.0 | CO2-LC (Bicarbonate) [3]: 100.0 ± 5.4 | CREAT (Creatinine) [3]: 92.9 ± 5.2 | EO (Eosinophils) [3]: 500.0 ± 250.0 | GLU (Glucose) [3]: 84.8 ± 2.4 | HCT (Hematocrit) [3]: 93.3 ± 2.3 | Hb (Hemoglobin) [3]: 91.7 ± 6.0 | K (Potassium) [3]: 82.9 ± 3.6 | LY (Lymphocytes) [3]: 124.1 ± 34.4 | MCH (Mean corpuscular hemoglobin) [3]: 103.0 ± 10.7 | MCV (Mean corpuscular volume) [3]: 105.0 ± 2.0 | MO (Monocytes) [3]: 66.6 ± 33.3 | MPV (Mean platelet volume) [3]: 82.7 ± 3.7 | NA (Sodium) [3]: 99.3 ± 0.6 | NE (Neutrophils) [3]: 148.3 ± 51.7 | PLT (Platelet count) [3]: 164.5 ± 3.7 | RBC (Red Blood Cells) [3]: 89.2 ± 3.0 | TBILI (Total bilirubin) [3]: 78.2 ± 6.5 | TPROT (Total protein) [3]: 91.3 ± 1.4 | WBC (White blood count) [3]: 136.0 ± 42.6

CN[C@@H]1C[C@H]2O[C@@](C)([C@@H]1OC)n1c3ccccc3c3c4c(c5c6ccccc6n2c5c31)C(=O)NC4 [staurosporin]
effect of pretreatment on bryostatin-enhanced sAPP-α secretion (sAPP-α): completely abolished the effect of bryostatin

CCCCCC1CC1CC1CC1CCCCCCCC(=O)OC (stereo not drawn) [DCPLA-methyl ester]
protection against ASPD-induced apoptosis (Human primary neurons): protected against ASPD-induced apoptosis | apoptotic cell death in neurons in the CA1 hippocampal area [4]: prevents apoptotic cell death | differentiation, neuronal branching and punctate colocalization of PSD-95 and synaptophysin (HCN-2 cells): significant differentiation with neuronal branching and increased punctate colocalization of PSD-95 and synaptophysin | co-localized staining of PSD-95 and synaptophysin in puncta (number of synapses) (Primary human neurons; 30 days): an increase in co-localized staining of PSD-95 and synaptophysin in puncta | survival, neuritic branching and connections (Primary human neurons; 40 days): improved survival with increased neuritic branching and connections | NTF mRNA expression decreased by Aβ [5]: recovers NTF mRNA expression decreased by Aβ | PKC-ε specificity versus PKC-α and PKC-δ (PKC-ε): PKC-ε specificity ±15% PKC-α and PKC-δ

Cn1cc(C2=C(c3cn(CCCSC(=N)N)c4ccccc34)C(=O)NC2=O)c2ccccc21 [Ro 31-8220]
effect on bryostatin-promoted induction of mushroom spine synapses [6]: inhibited

CCC1CC1CC1CC1CC1CC1CC1CC1CC1CC1CC1CC1CCC(=O)O (stereo not drawn) [DHA-CP6]
ECE activity (ECE [1]): increase in ECE activity | AMES testing result [2]: not mutagenic | Result (Mutagenic Potential) [2]: Result: Not mutagenic, p > 0.05 | ECE activity (ECE [7]): sustained increase in ECE activity
